Test results published in paper PMC11845331, “Teicoplanin pharmacokinetics in critically ill patients on extracorporeal organ support: a retrospective analysis” (Intensive Care Medicine Experimental, 2025).

What was measured:
[1] = Teicoplanin plasma trough levels (TCtrough) from therapeutic drug monitoring during ECMO support; format: in vivo, human
Text: This single-center retrospective study included critically ill, adult (> 18 years old) patients hospitalized at the tertiary intensive care unit (ICU) of the University Hospital Zurich, Switzerland, an academic teaching hospital. The local ICU provides care for patients from all medical and surgical fields. All patients undergoing extracorporeal membrane oxygenation (ECMO) support and intravenous teicoplanin treatment were eligible for study inclusion from 1.1.2010 to 19.07.2023. Patients were included irrespective of the admitting diagnosis and independent of the ECMO configuration (veno-venous, veno-arterial or others with, e.g., multiple cannulation sites). Patients aged < 18 years were excluded. Other exclusion criteria were documented verbal or written refusal to participate in this study. Patients were also excluded if teicoplanin was not administered for any portion of the ECMO treatment period (e.g., if given only before or after the ECMO treatment period) or if no trough levels were obtained during ECMO support.
Data were collected with the use of two in-hospital electronic medical records databases, the KISIM (Cistec AG, Zurich, Switzerland) and the Patient Data Management System (PDMS) MetaVision (iMDsoft, Dusseldorf, Germany). Collected data included baseline demographic data (including age, gender and body mass index), comorbidities (including cardiovascular conditions, pulmonary diseases, renal insufficiency) and immunosuppression (including patients with prior organ transplantation), ICU admitting diagnoses, and the indication for teicoplanin treatment (empiric vs. targeted). Moreover, ICU treatment modalities and scores (e.g., organ support and scores such as the Sequential Organ Failure Assessment Score SOFA and the Simplified Acute Physiology Score SAPS II) and patient outcomes (including ICU length of stay and survival) were gathered. Teicoplanin trough levels and dosages over time were obtained from the medical records (see below).
In our hospital, intravenous teicoplanin is normally administered for empiric or targeted coverage of Gram-positive microorganisms. The standard loading dose is 400 mg infused at 0 h, 12 h and 24 h. Thereafter, 400 mg are administered every 24 h. Measurement of teicoplanin trough levels (TCtrough) is recommended prior to the fifth dose and this also applies to dose adjustments. In case of renal impairment, TCtrough levels are recommended to be measured prior to the second dose, in order to detect potential overdosing early. If the estimated glomerular filtration rate (eGFR) is subnormal, teicoplanin starting dosage is adjusted (eGFR 40–60 ml/min: 200 mg/24 h, eGFR < 40 ml/min: 100 mg/24 h).
In case the patient is undergoing continuous renal replacement therapy, 200–400 mg teicoplanin every 24 h are recommended. In general, TCtrough of 10–30 mg/l are targeted. TCtrough < 10 mg/l are considered insufficient, whereas TCtrough > 30 mg/l are considered toxic. In case TCtrough are not within the target ranges, dose adaptations can be prescribed by the clinicians in charge. In case a measured TCtrough is toxic (i.e., > 30 mg/l), no more teicoplanin is administered, however TCtrough are measured on a daily basis. […] After increasing the dose, subsequent teicoplanin levels are again measured prior to the fifth dose or prior to the second dose in case of renal impairment, respectively. […]

[2] = Adverse reactions to teicoplanin in critically ill patients on ECMO; format: in vivo, human; settings: all 23 included patients on ECMO, i.v. teicoplanin
Text: The primary outcome of this study was the proportion of patients with insufficient or toxic TCtrough during ECMO support. Secondary outcomes included the observed TCtrough and teicoplanin dosages over time during ECMO support and dependent on the presence of continuous renal replacement therapy (CRRT), as well as the occurrence of side effects (such as hemotoxicity, hepatotoxicity or skin changes) leading to discontinuation of teicoplanin treatment.

[3] = cited from earlier work
Text: Recently, more attention has been drawn to antimicrobial serum levels and dosing in patients receiving ECMO treatment. While marked concentration variability during ECMO treatment has been observed for many common antimicrobials used in the ICU including meropenem, cefepime, ceftriaxone, piperacillin or vancomycin [14], data for teicoplanin are scarce so far.

[4] = human, in vivo; cited from earlier work
Protocol: Chen et al. focused on the effect of applying high loading doses in 11 patients receiving veno-arterial ECMO treatment. In their study, four loading doses greater than 10 mg/kg were applied within the first 72 h. Before the application of the maintenance dose, the authors reported adequate therapeutic TCtrough for severe infections in more than 90% of patients. In our study, the loading dose of 400 mg was markedly lower, which presumably might have contributed to our observed low TCtrough in a significant proportion of patients particularly during the first days of ECMO su ...

TCtrough mean difference, ECMO alone vs ECMO and CRRT ([1]; 95% CI 6–13, p < 0.0001): 9 mg/L | Influence of ECMO circuit configuration (veno-venous vs. veno-arterial) on TCtrough over time ([1]; Fig. 3): did not have a significant influence | TCtrough in patients with ECMO and CRRT ([1]; critically ill adult ICU patients, i.v. teicoplanin, plasma trough level, ECMO plus continuous renal replacement therapy, median [IQR 5–16]): 9 mg/L | TCtrough in patients with ECMO treatment alone ([1]; critically ill adult ICU patients, i.v. teicoplanin, plasma trough level, ECMO without CRRT, median [IQR 12–24 mg/l]): 18 mg/L | TCtrough mean difference in relation to oxygenator changes (pre vs. post) ([1]; five cases with available data, 95% CI –12 to 15, p = 0.8108): 1.5 mg/L
Substance: Teicoplanin
Drug reactions or other adverse reactions to teicoplanin [2]: no drug reactions or other adverse reactions to teicoplanin were observed | Loss of teicoplanin within the ECMO circuit ([3]; ex vivo blood-primed ECMO circuits): significant loss of teicoplanin | Lowering of central volume of distribution with ECMO treatment ([3]; population pharmacokinetic model, 10 adult ECMO patients): 34% | Proportion of patients with adequate therapeutic TCtrough for severe infections before the maintenance dose [4]: more than 90%
